In ChEMBL document CHEMBL4145629, “Synthesis of Thymoquinone-Artemisinin Hybrids: New Potent Antileukemia, Antiviral, and Antimalarial Agents” (ACS Med Chem Lett, 2018):

Tests used:
[1] = tested on: ADR5000 cell line; test: Cytotoxicity against human CEM/ADR5000 cells overexpressing P-gp assessed as reduction in cell viability after 72 hrs by resazurin dye based assay; type: functional; details: ADR5000, 72 h
[2] = tested on: Plasmodium falciparum; test: Antiplasmodial activity against Plasmodium falciparum 3D7 ring stage parasites infected in human erythrocytes after 72 hrs by SYBR Green 1 dye based fluorescence assay; type: functional, organism-based; details: 3D7, 72 h
[3] = tested on: CCRF-CEM; test: Cytotoxicity against human CCRF-CEM cells assessed as reduction in cell viability after 72 hrs by resazurin dye based assay; type: functional
[4] = tested on: HFF; test: Cytotoxicity against human HFF cells at 1 uM; type: cell-based
[5] = tested on: Human betaherpesvirus 5; test: Potency index, ratio of ganciclovir EC50 to compound EC50 for recombinant HCMV AD169 expressing GFP infected in human foreskin fibroblast; type: functional
[6] = tested on: Human betaherpesvirus 5; test: Potency index, ratio of artesunic acid EC50 to compound EC50 for recombinant HCMV AD169 expressing GFP infected in human foreskin fibroblast; type: functional

Compound	EC50 [1]	EC50 [2]	EC50 [3]	Activity [4]	Ratio EC50 [5]	Ratio EC50 [6]
CC1=C(CCCCOC(=O)CCC(=O)OCC(C[C@H]2O[C@@H]3O[C@@]4(C)CC[C@H]5[C@H](C)CC[C@@H]([C@H]2C)[C@@]35OO4)C[C@H]2O[C@@H]3O[C@@]4(C)CC[C@H]5[C@H](C)CC[C@@H]([C@H]2C)[C@@]35OO4)C(=O)C(C(C)C)=CC1=O (stereo partly specified)	7870 nM	12.2 nM	2.7 nM	50%		
CC1=C(CCCOC2O[C@@H]3O[C@@]4(C)CC[C@H]5[C@H](C)CC[C@@H]([C@H]2C)[C@@]35OO4)C(=O)C(C(C)C)=CC1=O (stereo partly specified)	200 nM	5.9 nM	200 nM		5	8
CC1=C(CCCCOC2O[C@@H]3O[C@@]4(C)CC[C@H]5[C@H](C)CC[C@@H]([C@H]2C)[C@@]35OO4)C(=O)C(C(C)C)=CC1=O (stereo partly specified)	200 nM	3.7 nM	300 nM		5	8
CC1=C(CCCOC(=O)C[C@H]2O[C@@H]3O[C@@]4(C)CC[C@H]5[C@H](C)CC[C@@H]([C@H]2C)[C@@]35OO4)C(=O)C(C(C)C)=CC1=O		54 nM				
CC1=C(CCOC(=O)CCC(=O)O[C@@H]2O[C@@H]3O[C@@]4(C)CC[C@H]5[C@H](C)CC[C@@H]([C@H]2C)[C@@]35OO4)C(=O)C(C(C)C)=CC1=O	1000 nM	8.2 nM	1200 nM			
CC1=C(CCCOC(=O)CC(=O)OCCOC(=O)CCC(=O)O[C@@H]2O[C@@H]3O[C@@]4(C)CC[C@H]5[C@H](C)CC[C@@H]([C@H]2C)[C@@]35OO4)C(=O)C(C(C)C)=CC1=O	8200 nM	4.4 nM	80 nM			
CC1=C(CCCCOC(=O)CCC(=O)O[C@@H]2O[C@@H]3O[C@@]4(C)CC[C@H]5[C@H](C)CC[C@@H]([C@H]2C)[C@@]35OO4)C(=O)C(C(C)C)=CC1=O	800 nM	7.7 nM	1400 nM			
CC1=C(CCCCOC(=O)C[C@H]2O[C@@H]3O[C@@]4(C)CC[C@H]5[C@H](C)CC[C@@H]([C@H]2C)[C@@]35OO4)C(=O)C(C(C)C)=CC1=O		17.5 nM				
CC1=CC(=O)C(C(C)C)=CC1=O [THYMOQUINONE]		> 80000 nM				
COc1cccc2c1C(=O)c1c(O)c3c(c(O)c1C2=O)C[C@@](O)(C(=O)CO)C[C@@H]3O[C@H]1C[C@H](N)[C@H](O)[C@H](C)O1 [DOXORUBICIN]	23300 nM		9 nM			
CC1=C(CCCOC(=O)CCC(=O)O[C@@H]2O[C@@H]3O[C@@]4(C)CC[C@H]5[C@H](C)CC[C@@H]([C@H]2C)[C@@]35OO4)C(=O)C(C(C)C)=CC1=O	1300 nM	6.9 nM	500 nM			
CC1=C(CCCCOC(=O)CCC(=O)O[C@@H]2O[C@@H]3O[C@@]4(C)CC[C@H]5[C@H](C)CC[C@@H]([C@H]2C)[C@@]35OO4)C(=O)C(C(C)C)=C(CCCCOC(=O)CCC(=O)O[C@@H]2O[C@@H]3O[C@@]4(C)CC[C@H]5[C@H](C)CC[C@@H]([C@H]2C)[C@@]35OO4)C1=O	5660 nM	12.1 nM	6070 nM	50%		
C[C@H]1[C@H](OC(=O)CCC(=O)O)O[C@@H]2O[C@@]3(C)CC[C@H]4[C@H](C)CC[C@@H]1[C@@]24OO3 [ARTESUNATE]	100 nM	8.2 nM	400 nM			
CC1=C(CCCOC(=O)CCC(=O)O[C@@H]2O[C@@H]3O[C@@]4(C)CC[C@H]5[C@H](C)CC[C@@H]([C@H]2C)[C@@]35OO4)C(=O)C(C(C)C)=C(CCCOC(=O)CCC(=O)O[C@@H]2O[C@@H]3O[C@@]4(C)CC[C@H]5[C@H](C)CC[C@@H]([C@H]2C)[C@@]35OO4)C1=O	200 nM	4.3 nM	200 nM			
